From patent US20140303164A1, “THERAPEUTIC COMPOUNDS” (Gilead Sciences, Inc., priority 2013, published 2014)

Assays:
[1] = Test B: Cytotoxicity Assay; type: cell-based; settings: human, uninfected MT-4 cells, same protocol as Test A
Experimental: (§1) MT-4 cells were next mixed with HIV-IIIb at an m.o.i of 0.003 for 1 hour, after which time 35 μL of virus/cell mixture (2000 cells) was immediately added to each well containing 40 μL of diluted compound. The plates were then incubated at 37° C. for 5 days. […] Cell lysis was carried out by incubating at room temperature for 10 min and then chemiluminescence was read.
Test B: Cytotoxicity Assay
Compound cytotoxicity and the corresponding CC50 values was determined using the same protocol as described in the antiviral assay (Test A) except that uninfected cells were used.

HIV-IIIb = experiment: Test A: Antiviral Assay in MT4 Cells; type: cell-based, HIV-1; settings: Human immunodeficiency virus 1, IIIB, MT4, 120 h; for inhibition at 0.2 µM: read-out: % inhibition at 0.2 μM; for inhibition at 2 µM: read-out: % inhibition at 2 μM
Experimental: Test A: Antiviral Assay in MT4 Cells
as §1

## Cn1nc(NS(C)(=O)=O)c2c(Cl)ccc(-c3ccc(C#CC(C)(C)O)nc3[C@H](Cc3cc(F)cc(F)c3)NC(=O)Cc3cccc(Cl)c3Cl)c21 [Compound 129, (S)—N-(1-(3-(4 chloro-1-methyl-3-(methylsulfonamido)-1H-indazol-7-yl)-6-(3-hydroxy-3-methylbut-1-yn-1-yl)pyridin-2-yl)-2-(3,5-difluorophenyl)ethyl)-2-(2,3-dichlorophenyl)acetamide]
[1]
  CC50 at 5 days: 12.1 µM
HIV-IIIb
  inhibition at 0.2 µM: 54%
  inhibition at 2 µM: 82%

## Cn1nc(NS(C)(=O)=O)c2cccc(-c3ccc(C#CC(C)(C)O)nc3[C@H](Cc3cc(F)cc(F)c3)NC(=O)Cn3nc(C(F)F)c4c3C(F)(F)[C@@H]3C[C@H]43)c21 [Compound 20, (S)—N-(1-(3-(1-methyl-3-(methylsulfonamido)-1H-indazol-7-yl)-6-(3-hydroxy-3-methylbut-1-ynyl)pyridin-2-yl)-2-(3,5-difluorophenyl)ethyl)-2-((3b-S,4aR)-5,5-difluoro-3-(difluoromethyl)-3b,4,4a,5-tetrahydro-1H-cyclopropa[3,4]cyclopenta[1,2-c]pyrazol-1-yl)acetamide]
[1]
  CC50 at 5 days: 11.2 µM
HIV-IIIb
  inhibition at 0.2 µM: 96%
  inhibition at 2 µM: 80%

## Cn1cnc(-c2ccc(-c3ccc(Cl)c4c(NS(C)(=O)=O)nn(C)c34)c([C@H](Cc3cc(F)cc(F)c3)NC(=O)Cn3nc(C(F)(F)F)c4c3C(F)(F)[C@@H]3C[C@H]43)n2)c1 [Compound 179, N—((S)-1-(3-(4-chloro-1-methyl-3-(methylsulfonamido)-1H-indazol-7-yl)-6-(1-methyl-1H-imidazol-4-yl)pyridin-2-yl)-2-(3,5-difluorophenyl)ethyl)-2-((3b-S,4aR)-5,5-difluoro-3-(trifluoromethyl)-3b,4,4a,5-tetrahydro-1H-cyclopropa[3,4]cyclopenta[1,2-c]pyrazol-1-yl)acetamide]
[1]
  CC50 at 5 days: 15.5 µM
HIV-IIIb
  inhibition at 0.2 µM: 100%
  inhibition at 2 µM: 100%

## CNS(=O)(=O)Nc1nn(C)c2c(-c3ccc(C#CC(C)(C)O)nc3[C@H](Cc3cc(F)cc(F)c3)NC(=O)Cn3nc(C(F)F)c4c3C(F)(F)[C@@H]3C[C@H]43)ccc(Cl)c12 [Compound 123, N—((S)-1-(3-(4-chloro-1-methyl-3-((N-methylsulfamoyl)amino)-1H-indazol-7-yl)-6-(3-hydroxy-3-methylbut-1-yn-1-yl)pyridin-2-yl)-2-(3,5-difluorophenyl)ethyl)-2-((3b-S,4aR)-3-(difluoromethyl)-5,5-difluoro-3b,4,4a,5-tetrahydro-1H-cyclopropa[3,4]cyclopenta[1,2-c]pyrazol-1-yl)acetamide]
[1]
  CC50 at 5 days: 7.9 µM
HIV-IIIb
  inhibition at 0.2 µM: 90%
  inhibition at 2 µM: 90%

## Cn1nc(N)c2c(Cl)ccc(-c3ccc(C#CC(C)(C)O)nc3[C@H](Cc3cc(F)cc(F)c3)NC(=O)Cn3nc(C(F)F)c4c3C(F)(F)[C@@H]3C[C@H]43)c21 [Compound 57, N—((S)-1-(3-(3-amino-4-chloro-1-methyl-1H-indazol-7-yl)-6-(3-hydroxy-3-methylbut-1-yn-1-yl)pyridin-2-yl)-2-(3,5-difluorophenyl)ethyl)-2-((3bS,4aR)-3-(difluoromethyl)-5,5-difluoro-3b,4,4a,5-tetrahydro-1H-cyclopropa[3,4]cyclopenta[1,2-c]pyrazol-1-yl)acetamide]
[1]
  CC50 at 5 days: 7.63 µM
HIV-IIIb
  inhibition at 0.2 µM: 93%
  inhibition at 2 µM: 93%

## Cn1nc(NS(C)(=O)=O)c2c(Cl)ccc(-c3ccc(C#CC(C)(C)O)nc3[C@H](Cc3cc(F)cc(F)c3)NC(=O)Cn3nc(C#N)c4c3C(F)(F)[C@@H]3C[C@H]43)c21 [Compound 159, N—((S)-1-(3-(4-chloro-1-methyl-3-(methylsulfonamido)-1H-indazol-7-yl)-6-(3-hydroxy-3-methylbut-1-yn-1-yl)pyridin-2-yl)-2-(3,5-difluorophenyl)ethyl)-2-((3bS,4aR)-3-cyano-5,5-difluoro-3b,4,4a,5-tetrahydro-1H-cyclopropa[3,4]cyclopenta[1,2-c]pyrazol-1-yl)acetamide]
[1]
  CC50 at 5 days: 27.4 µM
HIV-IIIb
  inhibition at 0.2 µM: 95%
  inhibition at 2 µM: 95%

## Cn1nc(NS(C)(=O)=O)c2c(Cl)ccc(-c3ccc(C#CC(C)(C)O)nc3[C@H](Cc3cc(F)cc(F)c3)NC(=O)Cn3nc(C(F)(F)F)c4c3COCC4)c21 [Compound 190, (S)—N-(1-(3-(4 chloro-1-methyl-3-(methylsulfonamido)-1H-indazol-7-yl)-6-(3-hydroxy-3-methylbut-1-yn-1-yl)pyridin-2-yl)-2-(3,5-difluorophenyl)ethyl)-2-(3-(trifluoromethyl)-4,5-dihydropyrano[3,4-c]pyrazol-1(7H)-yl)acetamide]
[1]
  CC50 at 5 days: 13.9 µM
HIV-IIIb
  inhibition at 0.2 µM: 98%
  inhibition at 2 µM: 98%

## Cn1nc(NS(C)(=O)=O)c2c(Cl)ccc(-c3ccc(C#CC(C)(C)O)nc3[C@H](Cc3cccc(F)c3)NC(=O)Cn3nc(C(F)(F)F)c4c3C(F)(F)[C@@H]3C[C@H]43)c21 [Compound 187G, N—((S)-1-(3-(4-chloro-1-methyl-3-(methylsulfonamido)-1H-indazol-7-yl)-6-(3-hydroxy-3-methylbut-1-yn-1-yl)pyridin-2-yl)-2-(3-fluorophenyl)ethyl)-2-((3b-S,4aR)-5,5-difluoro-3-(trifluoromethyl)-3b,4,4a,5-tetrahydro-1H-cyclopropa[3,4]cyclopenta[1,2-c]pyrazol-1-yl)acetamide]
[1]
  CC50 at 5 days: 19.8 µM
HIV-IIIb
  inhibition at 0.2 µM: 84%
  inhibition at 2 µM: 84%

## CC(C)(O)C#Cc1ccc(-c2ccc(Cl)c3c(NS(C)(=O)=O)n[nH]c23)c([C@H](Cc2cc(F)cc(F)c2)NC(=O)Cn2nc(C(F)F)c3c2C(F)(F)[C@@H]2C[C@H]32)n1 [Compound 108C, N—((S)-1-(3-(4-chloro-3-(methylsulfonamido)-1H-indazol-7-yl)-6-(3-hydroxy-3-methylbut-1-yn-1-yl)pyridin-2-yl)-2-(3,5-difluorophenyl)ethyl)-2-((3b-S,4aR)-3-(difluoromethyl)-5,5-difluoro-3b,4,4a,5-tetrahydro-1H-cyclopropa[3,4]cyclopenta[1,2-c]pyrazol-1-yl)acetamide]
[1]
  CC50 at 5 days: > 53.1 µM
HIV-IIIb
  inhibition at 0.2 µM: 94%
  inhibition at 2 µM: 94%

## CC(C)(O)C#Cc1ccc(-c2cccn3c(C(F)F)nnc23)c([C@H](Cc2cc(F)cc(F)c2)NC(=O)Cn2nc(C(F)F)c3c2C(F)(F)[C@@H]2C[C@H]32)n1 [Compound 138, 2-((3b-S,4aR)-3-(difluoromethyl)-5,5-difluoro-3b,4,4a,5-tetrahydro-1H-cyclopropa[3,4]cyclopenta[1,2-c]pyrazol-1-yl)-N—((S)-1-(3-(3-(difluoromethyl)-[1,2,4]triazolo[4,3-a]pyridin-8-yl)-6-(3-hydroxy-3-methylbut-1-yn-1-yl)pyridin-2-yl)-2-(3,5-difluorophenyl)ethyl)acetamide]
[1]
  CC50 at 5 days: 33.4 µM
HIV-IIIb
  inhibition at 0.2 µM: 61%
  inhibition at 2 µM: 83%

## Cn1nc(NS(N)(=O)=O)c2cccc(-c3ccc(C#CC(C)(C)O)nc3[C@H](Cc3cc(F)cc(F)c3)NC(=O)Cn3nc(C(F)(F)F)c4c3C(F)(F)[C@@H]3C[C@H]43)c21 [Compound 44, 2-((3bS,4aR)-5,5-difluoro-3-(trifluoromethyl)-3b,4,4a,5-tetrahydro-1H-cyclopropa[3,4]cyclopenta[1,2-c]pyrazol-1-yl)-N—((S)-2-(3,5-difluorophenyl)-1-(6-(3-hydroxy-3-methylbut-1-yn-1-yl)-3-(1-methyl-3-(sulfamoylamino)-1H-indazol-7-yl)pyridin-2-yl)ethyl)acetamide]
[1]
  CC50 at 5 days: 6.82 µM
HIV-IIIb
  inhibition at 0.2 µM: 94%
  inhibition at 2 µM: 94%

## Cc1nc(NS(C)(=O)=O)c2cccc(-c3ccc(C#CC(C)(C)O)nc3[C@H](Cc3cc(F)cc(F)c3)NC(=O)Cn3nc(C(F)(F)F)c4c3C(F)(F)[C@@H]3C[C@H]43)n12 [Compound 121, 2-((3bS,4aR)-5,5-difluoro-3-(trifluoromethyl)-3b,4,4a,5-tetrahydro-1H-cyclopropa[3,4]cyclopenta[1,2-c]pyrazol-1-yl)-N—((S)-2-(3,5-difluorophenyl)-1-(6-(3-hydroxy-3-methylbut-1-yn-1-yl)-3-(3-methyl-1-(methylsulfonamido)imidazo[1,5-a]pyridin-5-yl)pyridin-2-yl)ethyl)acetamide]
[1]
  CC50 at 5 days: 9.18 µM
HIV-IIIb
  inhibition at 0.2 µM: 46%
  inhibition at 2 µM: 98%

## CC(C)(O)C#Cc1ccc(-c2ccc(Cl)c3c(NS(C)(=O)=O)n[nH]c23)c([C@H](Cc2cc(F)cc(F)c2)NC(=O)Cn2nc(C(F)(F)F)c3c2C(F)(F)[C@@H]2C[C@H]32)n1 [Compound 109, N—((S)-1-(3-(4-chloro-3-(methylsulfonamido)-1H-indazol-7-yl)-6-(3-hydroxy-3-methylbut-1-yn-1-yl)pyridin-2-yl)-2-(3,5-difluorophenyl)ethyl)-2-((3b-S,4aR)-5,5-difluoro-3-(trifluoromethyl)-3b,4,4a,5-tetrahydro-1H-cyclopropa[3,4]cyclopenta[1,2-c]pyrazol-1-yl)acetamide]
[1]
  CC50 at 5 days: 29.6 µM
HIV-IIIb
  inhibition at 0.2 µM: 97%
  inhibition at 2 µM: 97%

## CC(C)(O)C#Cc1ccc(-c2cc(F)c(F)c(C(N)=O)c2)c([C@H](Cc2cc(F)cc(F)c2)NC(=O)Cn2nc(C(F)(F)F)c3c2C(F)(F)[C@@H]2C[C@H]32)n1 [Compound 30, 5-(2-((S)-1-(2-((3bS,4aR)-5,5-difluoro-3-(trifluoromethyl)-3b,4,4a,5-tetrahydro-1H-cyclopropa[3,4]cyclopenta[1,2-c]pyrazol-1-yl)acetamido)-2-(3,5-difluorophenyl)ethyl)-6-(3-hydroxy-3-methylbut-1-yn-1-yl)pyridin-3-yl)-2,3-difluorobenzamide]
[1]
  CC50 at 5 days: 8.58 µM
HIV-IIIb
  inhibition at 0.2 µM: 1%
  inhibition at 2 µM: 91%
